{"source": "patent US7723473B2", "about": "“Peptide antagonists of TGF-beta family members and therapeutic uses thereof” (St. Louis University, priority 1997, dated 2010)", "key": {"excision wounds": {"tested_on": "excision wounds", "test": "Pig excision wound model", "type": "in vivo", "settings": "for deposition / immunostaining of fibronectin in excision wounds / deposition / immunostaining of type I collagen in excision wounds: post-excision day 30 (legend: day 28), immunohistochemistry", "protocol": "(§1) Preparation of IntraSite® gel containing TGF-β peptantagonist (peptide TGF-beta antagonist). 1 ml of sterile 6 mM peptide β1^25 (41-65) in phosphate buffered saline or 1 ml of sterile phosphate buffered saline was vigorously mixed with 3 ml of IntraSite® gel using two 10 ml syringes connected with a three-way connector. […] However, 1.5 mM of peptide β1^25 (41-65) was used throughout the experiments described below.\n(§2) Excision wound model. Four pigs received intramuscular injection of ketamine, strenil® and atropine as described above. Six excision injuries were generated by removing full-thickness sections of skin (3×3 cm) from standardized sites on the back of each animal using a scapel. Three rabbits, were anesthetized by intramuscular injection of ketamine (5 mg/kg). Three excision injuries were produced in each by removing full-thickness sections of skin (0.5×1 cm) from each ear. After wounds, a thin layer of IntraSite® gel containing peptide β1^25 (41-65) was applied to alternating wounds on each animal and IntraSite® gel+buffer was applied to the other half. The excision wounds were then dressed with a paraffin gauze. For pig experiments, the dressing was changed every two days for the first 10 days and twice a week for the next 30 days. For rabbit experiments, the dressing was changed for the first 3 days. Gel containing peptide β1^25 (41-65) or control gel was applied at each dressing change.\n(§3) Assessment of wound healing. Wound healing was assessed by evaluating the rates of wound re-epithelization and contraction. The open wound area and the area enclosed by the normal hair bearing skin were measured using the macrophotography technique (Ref. 14). The healing rate was monitored every two days for the first 10 days and twice a week for 30 more days. Wound reepithelialization as a percent of the original wound size was calculated using the following formula:\n(§4) [formula] where C=rate of wound contraction in percent; Al=wound area as measured immediately following the burn or excision injury; An=area enclosed by normal hair bearing skin.\nImmunohistochemistry. The wounds were frozen immediately after being removed from animals on post-excision day 30. Serial sections were placed on polylysine-coated slides. The sections containing wound areas were stained with hematoxylin/eosin and monoclonal antibodies to type I collagen and fibronectin and biotin-conjugated rabbit anti-mouse IgG/streptavidin-conjugated horseradish peroxidase (Ref. 16). The stained sections were examined and photographed by light microscopy."}, "PAI-1 expression": {"tested_on": "PAI-1 expression", "test": "PAI-1 expression in mink lung epithelial cells (Northern blot)", "type": "cell-based", "settings": "0.25 ρM and 2.5 ρM TGF-β1", "protocol": "RNA Analysis—Mink lung epithelial cells were grown overnight in 12-well clustered dishes in DMEM containing 10% fetal calf serum. The medium was then changed to DMEM containing 0.1% fetal calf serum and the cells were incubated with 0.25 and 2.5 ρM TGF-β1 in the presence of various concentrations of peptide β1^25 (41-65) for 2.5 hr. Total cellular RNA was extracted using RNAzol B (Tel-Test Inc.) according to the manufacturer's protocol. RNA was electrophoresed in 1.2% agarose-formaldehyde gel and transferred to Duralon-UV membranes using 10×SSC. The membranes were probed at 42° C. with a random-primed, radiolabeled 1-kb fragment from the Hind III and NeoI digests of PAI-1 cDNA and glyceraldehyde-3-phosphate dehydrogenase (“GAPDH”) cDNA. The blots were washed with 0.1×SSC containing 0.1% SDS at room temperature."}, "burn wounds": {"tested_on": "burn wounds", "test": "Pig burn wound model", "type": "in vivo", "settings": "for re-epithelialization / healing rate versus vehicle: after post-burn day 10; for scarring versus vehicle-only control wounds: post-burn day 35 (and 41)", "protocol": "as §1\nBurn wound model. Four pigs weighing 20-25 kg were anesthetized by intramuscular injection of ketamine (5 mg/kg), strenil® (cazaporonum) (20 mg/kg) and atropine (5 mg/kg). Six uniform burn wounds (110° C., 30 sec) were then made symmetrically on the back of each pig using a modified soldering iron (Ref. 15) with a flat contact area of 20 cm^2. […] After wounding, a thin layer of Intrasite®) gel containing either peptide β1^25 (41-65), buffer or nothing else was applied to the wounds. All wounds were dressed with paraffin gauze. The dressing was changed every two days for the first 10 days and twice a week for the next 30 days. Gel comprising peptide β1^25 (41-65) and control gel were applied and wound measurements were made at each dressing change.\nas §3\n[formula] where E=rate of re-epithelialization in percent; An=area enclosed by the normal hair bearing skin on a given post-burn day; Ao=area of open wound on the same day as was measured. Wound contraction was calculated using the following formula:\nas §4\n(§5) Measurement of scar. The volumes of scar tissue were estimated by multiplying their thickness by the size of the scar on post-burn day 41 in pigs and post-excision day 10 in rabbits."}, "[1]": {"tested_on": "type V TGF-β receptor (TβR-V)", "test": "125I-TGF-β1-affinity labeling of cell-surface type V TGF-β receptor in mink lung epithelial cells", "type": "binding", "settings": "peptide at 2.3 μM", "protocol": "(§6) ^125I-TGF-β1-affinity labeling of cell-surface TGF-β receptors in mink lung epithelial cells. Mink lung epithelial cells grown on 60-mm Petri dishes were incubated with 0.1 nM […] the presence of various concentrations of peptide β1^25 (41-65) or peptide β3^25 (41-65) in binding buffer. After 2.5 hr at 0° C., ^125I-TGF-β1-affinity labeling was carried out in the presence of DSS as described. The ^125I-TGF-β1-affinity-labeled TGF-β receptors were analyzed by 5% SDS-polyacrylamide gel electrophoresis under reducing conditions and autoradiography."}, "[2]": {"tested_on": "mink lung epithelial cells", "test": "Blocking of TGF-β1-induced growth inhibition ([methyl-3H]thymidine incorporation, DNA synthesis)", "type": "cell-based", "protocol": "[Methyl-^3H]thymidine Incorporation—Mink lung epithelial cells grown on 24-well clustered dishes were incubated with various concentrations of TGF-β1 in the presence and absence of peptide β1^25 (41-65) or with various concentrations of peptide β1^25 (41-65)-CA, and peptide β1^25 (41-65)-BSA in DMEM containing 0.1% fetal calf serum. After 16 hr at 37° C., the cells were pulsed with 1 μCi/ml of [methyl-^3H]thymidine for 4 hr. The cells were then washed twice with 1 ml of 10% trichloroacetic acid and once with 0.5 ml of ethanol:ether (2:1, v/v). The cells were then dissolved in 0.4 ml of 0.2 N NaOH and counted with a liquid scintillation counter."}, "ear excision wounds": {"tested_on": "ear excision wounds", "test": "Rabbit ear excision wound model", "type": "in vivo", "settings": "for scar formation: post-excision day 10", "protocol": "as §1, §2, §5"}, "[3]": {"tested_on": "type I, type II, and type III TGF-β receptors", "test": "125I-TGF-β1-affinity labeling of other cell-surface TGF-β receptor types in mink lung epithelial cells", "type": "binding", "settings": "peptide at 2.3 μM", "protocol": "as §6"}, "[4]": {"settings": "1.5 mM in gel, topical, listed as TGF-β peptantagonist"}}, "note": "“Also recorded” adds a separate entry of the source."}
{"sequence": "ANFCLGPCPYIWSLDTQYSKVLALY [peptide β1^25 (41-65)]", "values": [{"measurement": "contraction of the wound", "setting": "excision wounds; 1.5 mM in gel, topical", "value": "attenuated contraction"}, {"measurement": "vertical (length of the healed wound) contraction versus vehicle only", "setting": "excision wounds; 1.5 mM in gel, topical", "value": "less vertical"}, {"measurement": "vertical (length of the healed wound) contraction versus vehicle only", "setting": "excision wounds; [4]", "value": "contracted vertically less; also recorded: less vertical"}, {"measurement": "deposition / immunostaining of fibronectin in excision wounds", "setting": "excision wounds", "value": "diminished the deposition"}, {"measurement": "deposition / immunostaining of type I collagen in excision wounds", "setting": "excision wounds", "value": "diminished the deposition"}, {"measurement": "deposition / immunostaining of fibronectin in excision wounds", "setting": "excision wounds; listed as TGF-β peptantagonist", "value": "less intensity of staining"}, {"measurement": "deposition / immunostaining of type I collagen in excision wounds", "setting": "excision wounds; listed as TGF-β peptantagonist", "value": "less intensity of staining"}, {"measurement": "horizontal (width of the healed wound) contraction", "setting": "excision wounds; post-excision day 41", "value": "almost contracted completely"}, {"measurement": "blocking of PAI-1 expression stimulated by TGF-β1", "setting": "PAI-1 expression", "value": "completely blocked"}, {"measurement": "wound contraction versus vehicle only", "setting": "burn wounds; 1.5 mM in gel, topical", "value": "less contraction"}, {"measurement": "re-epithelialization / healing rate versus vehicle", "setting": "burn wounds; 1.5 mM in gel, topical", "value": "rapid re-epithelialization"}, {"measurement": "re-epithelialization / healing rate versus vehicle", "setting": "burn wounds; [4]", "value": "healed faster"}, {"measurement": "re-epithelialization complete", "setting": "burn wounds; 1.5 mM in gel, topical, n=4", "value": "26±2", "unit": "post-burn day"}, {"measurement": "wound contraction versus vehicle only", "setting": "burn wounds; [4]", "value": "contracted significantly"}, {"measurement": "accelerating wound healing and reducing scarring", "setting": "burn wounds; 0.75 and 1.5 mM peptide in gel, topical", "value": "effective"}, {"measurement": "open wound", "setting": "burn wounds; post-burn day 23", "value": "very little open wound"}, {"measurement": "wound contraction", "setting": "burn wounds; post-burn day 33, 1.5 mM in gel, n=4", "value": "50±4", "unit": "%"}, {"measurement": "open wound", "setting": "burn wounds; post-burn day 34", "value": "very little open wound"}, {"measurement": "scarring versus vehicle-only control wounds", "setting": "burn wounds", "value": "less scarring"}, {"measurement": "scarring versus vehicle-only control wounds", "setting": "burn wounds; listed as TGF-β peptantagonist", "value": "less scar formation"}, {"measurement": "volume of scar tissue", "setting": "burn wounds; post-burn day 41", "value": "0.07±0.02", "unit": "cm^3"}, {"measurement": "inhibition of 125I-TGF-β1-affinity labeling of the type V TGF-β receptor", "setting": "[1]", "value": "almost completely abolished"}, {"measurement": "blocking of DNA synthesis inhibition induced by TGF-β1", "setting": "[2]; 0.025 ρM and 0.25 ρM TGF-β1, 18 μM peptide", "value": "completely blocked"}, {"measurement": "blocking of TGF-β1-induced growth inhibition, dose dependence", "setting": "[2]; 0.25 ρM TGF-β1, various concentrations of peptide", "value": "concentration-dependent manner"}, {"measurement": "scar formation", "setting": "ear excision wounds", "value": "attenuated scar formation"}, {"measurement": "volume of scar tissue", "setting": "ear excision wounds; post-excision day 10, n=6, estimated", "value": "0.005±0.01", "unit": "cm^3"}, {"measurement": "scar formation", "setting": "ear excision wounds; listed as TGF-β-peptantagonist", "value": "reduced scarring"}, {"measurement": "inhibition of 125I-TGF-β1-affinity labeling of other TGF-β receptor types", "setting": "[3]", "value": "30-40%"}]}
